Experimental data as given in the supplement of paper PMC10307832.

Columns and labels:
Assay in all cases: relative viability (nuclei count vs DMSO), 5 days (fraction); higher = more cells survive
Everolimus + Trametinib = compound: CO[C@H]1C[C@@H]2CC[C@@H](C)[C@@](O)(O2)C(=O)C(=O)N2CCCC[C@H]2C(=O)O[C@H]([C@H](C)C[C@@H]2CC[C@@H](OCCO)[C@H](OC)C2)CC(=O)[C@H](C)/C=C(\C)[C@@H](O)[C@@H](OC)C(=O)[C@H](C)C[C@H](C)/C=C/C=C/C=C/1C [Everolimus] + CC(=O)Nc1cccc(-n2c(=O)n(C3CC3)c(=O)c3c(Nc4ccc(I)cc4F)n(C)c(=O)c(C)c32)c1 [Trametinib] (partner 0.02 µM)
How it was run: (§1)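 After 5 days of treatment, lung cancer cells in 1536-well plates were fixed and stained in a single step (final 0.05% Triton X-100, 1% formaldehyde, 1 ug/ml Hoechst) and their nuclei counted on 4× images. Treatment had been applied by pin tool the day after seeding as one drug alone or as a fixed anchor-drug dose with five library-drug doses (not always all listed) in √10 steps. Relative viability is the nuclei count of treated wells divided by that of vehicle wells, and values are medians of duplicate plates.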

Everolimus + Bortezomib = compound: CO[C@H]1C[C@@H]2CC[C@@H](C)[C@@](O)(O2)C(=O)C(=O)N2CCCC[C@H]2C(=O)O[C@H]([C@H](C)C[C@@H]2CC[C@@H](OCCO)[C@H](OC)C2)CC(=O)[C@H](C)/C=C(\C)[C@@H](O)[C@@H](OC)C(=O)[C@H](C)C[C@H](C)/C=C/C=C/C=C/1C [Everolimus] + CC(C)C[C@H](NC(=O)[C@H](Cc1ccccc1)NC(=O)c1cnccn1)B(O)O [Bortezomib] (partner 0.002 µM)
How it was run: as §1

Everolimus + Pictilisib = compound: CO[C@H]1C[C@@H]2CC[C@@H](C)[C@@](O)(O2)C(=O)C(=O)N2CCCC[C@H]2C(=O)O[C@H]([C@H](C)C[C@@H]2CC[C@@H](OCCO)[C@H](OC)C2)CC(=O)[C@H](C)/C=C(\C)[C@@H](O)[C@@H](OC)C(=O)[C@H](C)C[C@H](C)/C=C/C=C/C=C/1C [Everolimus] + CS(=O)(=O)N1CCN(Cc2cc3nc(-c4cccc5[nH]ncc45)nc(N4CCOCC4)c3s2)CC1 [Pictilisib] (partner 1 µM)
How it was run: as §1

Everolimus + Olaparib = compound: CO[C@H]1C[C@@H]2CC[C@@H](C)[C@@](O)(O2)C(=O)C(=O)N2CCCC[C@H]2C(=O)O[C@H]([C@H](C)C[C@@H]2CC[C@@H](OCCO)[C@H](OC)C2)CC(=O)[C@H](C)/C=C(\C)[C@@H](O)[C@@H](OC)C(=O)[C@H](C)C[C@H](C)/C=C/C=C/C=C/1C [Everolimus] + O=C(c1cc(Cc2n[nH]c(=O)c3ccccc23)ccc1F)N1CCN(C(=O)C2CC2)CC1 [Olaparib] (partner 8 µM)
How it was run: as §1

Row | Cell Line | relative viability (Everolimus + Trametinib; first compound 0.01 µM) | relative viability (Everolimus + Trametinib; first compound 0.03162 µM) | relative viability (Everolimus + Trametinib; first compound 0.1 µM) | relative viability (Everolimus + Trametinib; first compound 0.3162 µM) | relative viability (Everolimus + Trametinib; first compound 1 µM) | relative viability (Everolimus + Bortezomib; first compound 0.01 µM) | relative viability (Everolimus + Bortezomib; first compound 0.03162 µM) | relative viability (Everolimus + Bortezomib; first compound 0.1 µM) | relative viability (Everolimus + Bortezomib; first compound 0.3162 µM) | relative viability (Everolimus + Bortezomib; first compound 1 µM) | relative viability (Everolimus + Pictilisib; first compound 0.01 µM) | relative viability (Everolimus + Pictilisib; first compound 0.03162 µM) | relative viability (Everolimus + Pictilisib; first compound 0.1 µM) | relative viability (Everolimus + Pictilisib; first compound 0.3162 µM) | relative viability (Everolimus + Pictilisib; first compound 1 µM) | relative viability (Everolimus + Olaparib; first compound 0.01 µM) | relative viability (Everolimus + Olaparib; first compound 0.03162 µM) | relative viability (Everolimus + Olaparib; first compound 0.1 µM) | relative viability (Everolimus + Olaparib; first compound 0.3162 µM) | relative viability (Everolimus + Olaparib; first compound 1 µM)
1 | 201T | 0.658 | 0.632 | 0.586 | 0.595 | 0.57 | 1.01 | 1.01 | 0.956 | 0.927 | 0.953 | 0.59 | 0.604 | 0.528 | 0.568 | 0.645 | 0.716 | 0.802 | 0.724 | 0.786 | 0.783
2 | A549 |  |  |  |  |  |  |  |  |  |  | 0.16 | 0.178 | 0.166 | 0.182 | 0.192 | 0.204 | 0.234 | 0.232 | 0.237 | 0.215
3 | A-427 | 0.472 | 0.482 | 0.472 | 0.556 | 0.574 | 0.783 | 0.891 | 0.778 | 0.742 | 0.768 | 0.488 | 0.524 | 0.445 | 0.491 | 0.542 | 0.576 | 0.723 | 0.635 | 0.656 | 0.691
4 | ABC-1 |  |  |  |  |  | 0.272 | 0.3 | 0.304 | 0.285 | 0.293 | 0.389 | 0.371 | 0.413 | 0.542 | 0.557 | 1.17 |  | 1 |  | 0.749
5 | Calu-6 |  |  |  |  |  | 0.91 | 0.9 | 0.901 | 0.937 | 0.78 | 0.573 | 0.566 | 0.559 | 0.527 | 0.592 | 0.624 | 0.68 | 0.646 | 0.552 | 0.705
6 | EBC-1 |  |  |  |  |  | 0.344 | 0.406 | 0.314 | 0.424 | 0.255 | 0.199 | 0.193 | 0.221 | 0.227 | 0.222 | 0.505 | 0.324 | 0.31 | 0.349 | 0.334
7 | IA-LM |  |  |  |  |  | 0.209 | 0.255 | 0.305 | 0.439 | 0.405 | 0.211 | 0.162 | 0.137 | 0.158 | 0.104 | 0.759 | 0.613 | 0.603 | 0.741 | 0.665
8 | LK-2 | 0.688 | 0.468 | 0.425 | 0.421 | 0.438 |  |  |  |  |  | 0.5 |  | 0.37 | 0.322 | 0.386 | 0.594 | 0.603 | 0.413 | 0.403 | 0.351
9 | NCI-H358 | 0.105 | 0.102 | 0.114 | 0.129 | 0.109 |  |  |  |  |  | 0.257 | 0.241 | 0.213 | 0.257 | 0.213 | 0.424 | 0.384 | 0.303 | 0.325 | 0.389
10 | NCI-H522 | 0.634 | 0.55 | 0.527 | 0.456 | 0.635 |  |  |  |  |  |  |  |  |  |  | 0.609 | 0.474 | 0.429 | 0.448 | 0.438
